From patent US7169580B1, “Protein having PGE2 synthase activity and use thereof” (Chugai Seiyaku Kabushiki Kaisha, priority 2000, dated 2007)
Where a chain is given by its changes, count along the chain named. Entries after “also recorded” stand apart in the source; their conditions may differ.

Experiments:
Assay type in all cases: biochemical
PGES-2 = target: T1, PGES-2 (Homo sapiens, UniProt O14684); assay: PGES activity in HEK293 cells transfected with PGES-2; settings: HEK293 cells transfected with PGES-2, coexistence of CDNB
T1 construct: expressed in transfected cells; host or cells: HEK293
T1 sequence (O14684 1-152): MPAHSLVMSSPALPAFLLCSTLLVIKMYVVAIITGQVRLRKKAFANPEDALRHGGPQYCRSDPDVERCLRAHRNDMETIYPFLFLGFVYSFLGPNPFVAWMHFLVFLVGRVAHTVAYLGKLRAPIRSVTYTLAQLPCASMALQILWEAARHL
Experimental: (§1) PGES activity was measured as follows: Cells suspended in 20 mmol/L Tris-hydrochloride buffer (pH 7.4) were homogenized using ultrasonic homogenizer (Branson Sonifier Model 200) and centrifuged at 800×g for 5 minutes at 4° C., and the supernatant was used as the cell lysate in the following. 0.5 μg of PGH2 was added to the lysate, which was suspended with 0.1 mol/L Tris-hydrochloride buffer (pH 8.0) containing 1 mmol/L GSH, with a protein content of 10 μg, was incubated for 30 seconds at 24° C., and then 8 mmol/L FeCl2 was added to terminate the reaction. The amount of produced PGE2 was measured by Enzyme Immunoassay Kit (Cayman), and PGES activity was expressed as the amount of PGE2 produced per 30 seconds, per 10 μg of protein (ng/30 sec/10 μg protein).

[1] = target: T2, PGES activity of peak C (PGES-1) (Rattus norvegicus, UniProt P83868); assay: PGES activity of Superdex 200 gel filtration fractions of rat brain soluble fraction; settings: Superdex 200 peak C (approximately 50 kDa), in contrast to peaks A and B
T2 construct: from tissue; host or cells: brain of LPS-administered rat: 100,000 x g supernatant, 60-80% ammonium sulfate, DEAE-Sephacel, Superdex 200 peak C
T2 sequence (P83868 1-160): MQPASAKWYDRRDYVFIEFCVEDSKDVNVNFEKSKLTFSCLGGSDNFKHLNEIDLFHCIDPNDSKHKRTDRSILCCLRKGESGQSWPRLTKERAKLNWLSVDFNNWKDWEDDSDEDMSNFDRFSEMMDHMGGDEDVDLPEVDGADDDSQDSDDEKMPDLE
Experimental: as §1
150 μg/kg body LPS (Salmonella minnesota: Re595) was administered intravenously from rat tail. Rat brain was removed 2 days after the injection and was homogenized using Potter's homogenizer at 4° C. […]
A protein of a molecular weight of about 27 kDa, corresponding with the PGES activity (PGES-1), was obtained by SDS electrophoretic analysis of peak C (FIG. 3, bottom). The production of this protein was predicted to elevate in response to inflammatory stimulus due to the fact that large amount of the protein was detected in LPS-administered rats than in normal rats.

PGES-1 = target: T3, PGES-1 (Homo sapiens, UniProt Q15185); assay: PGES activity in lysate of HEK293 cells transfected with PGES-1 cDNA; settings: lysate of HEK293 cells transfected with PGES-1, coexistence of CDNB
T3 construct: the cDNA of full-length human progesterone receptor complex component protein p23 was isolated by RT-PCR; expressed in transfected cells; host or cells: HEK293
T3 sequence (Q15185 1-160): T2 sequence (P83868 1-160) with D128N, H129N
Experimental: as §1
Peptide mapping of PGES-1 protein was carried out using V8 protease, and 3 fragments among the peptide fragments were analyzed by N-terminal amino acid sequence analyzer to determine the partial amino acid sequence thereof. According to GenBank database search with one of these amino acid sequences, the sequence completely matched to a portion of a known sequence reported as the human progesterone receptor complex component protein p23 (Johnson, J L et al., Mol. Cell. Biol., 14:1956–63, 1994). […] Thus, the cDNA was confirmed to encode the desired PGES.

SMILES: O=[N+]([O-])c1ccc(Cl)c([N+](=O)[O-])c1 [CDNB, 1-chloro-2,4-dinitrobenzene]
- effect of CDNB on GSH-dependent PGES activity of recombinant PGES-2 (PGES-2): CDNB insensitive; also recorded: not suppressed
- effect of CDNB on PGES activity of peak C [1]: strongly inhibited
- effect of CDNB on GSH-dependent PGES activity of recombinant PGES-1 (PGES-1): CDNB sensitive; also recorded: suppressed
